The source made the active and inactive calls. The rule behind the calls is not given here.
Assays:
[1] = target: T1, Beta-3 adrenergic receptor (Homo sapiens, UniProt P13945); test: Agonist activity at human adrenergic beta-3 receptor expressed in CHO cells assessed as cAMP levels by DELFIA method; format: functional, cell-based
[2] = target: Beta-3 adrenergic receptor (Rattus norvegicus) (UniProt P26255); test: Antagonist activity at adrenergic beta-3 receptor in rat proximal colon assessed as colon motility; format: functional, tissue-based
[3] = target: Beta-1 adrenergic receptor (Homo sapiens) (UniProt P08588); test: Displacement of [3H]dihydroalprenolol from human adrenergic beta-1 receptor expressed in CHO cells at 10 uM; format: cell-based
[4] = target: Beta-2 adrenergic receptor (Homo sapiens) (UniProt P07550); test: Displacement of [3H]dihydroalprenolol from human adrenergic beta-2 receptor expressed in CHO cells at 10 uM; format: cell-based
[5] = target: T2, Peroxisome proliferator-activated receptor alpha (Mus musculus) (UniProt P23204); test: Agonist activity at mouse PPARalpha receptor in monkey COS7 cells assessed as activation of CAT reporter gene at 50 uM by transactivation assay relative to Wy,14-643; format: functional, cell-based; details: COS-7
T2 sequence (whole entry): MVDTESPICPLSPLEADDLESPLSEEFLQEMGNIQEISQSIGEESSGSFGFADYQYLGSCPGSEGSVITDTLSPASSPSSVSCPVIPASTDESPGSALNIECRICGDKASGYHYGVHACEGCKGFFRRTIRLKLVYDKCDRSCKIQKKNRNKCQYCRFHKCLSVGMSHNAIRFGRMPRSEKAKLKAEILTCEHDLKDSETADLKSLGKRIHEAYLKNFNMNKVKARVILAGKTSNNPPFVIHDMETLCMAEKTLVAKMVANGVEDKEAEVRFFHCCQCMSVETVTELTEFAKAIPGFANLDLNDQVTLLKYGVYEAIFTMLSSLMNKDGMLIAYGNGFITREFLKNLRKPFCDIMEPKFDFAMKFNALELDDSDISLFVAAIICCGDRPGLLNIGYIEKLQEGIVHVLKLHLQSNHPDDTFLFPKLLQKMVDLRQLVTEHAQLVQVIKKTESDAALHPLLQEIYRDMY

[6] = target: T2, Peroxisome proliferator-activated receptor alpha (Mus musculus); test: Agonist activity at mouse PPARalpha receptor in monkey COS7 cells assessed as activation of CAT reporter gene at 150 uM by transactivation assay relative to Wy,14-643; format: functional, cell-based; details: COS-7
[7] = target: T2, Peroxisome proliferator-activated receptor alpha (Mus musculus); test: Agonist activity at mouse PPARalpha receptor in monkey COS7 cells assessed as activation of CAT reporter gene at 300 uM by transactivation assay relative to Wy,14-643; format: functional, cell-based; details: COS-7
[8] = target: T2, Peroxisome proliferator-activated receptor alpha (Mus musculus); test: Agonist activity at mouse PPARalpha receptor in monkey COS7 cells assessed as activation of CAT reporter gene at 2 uM by transactivation assay relative to Wy,14-643; format: functional, cell-based; details: COS-7
[9] = target: T1, Beta-3 adrenergic receptor
Description: Agonist activity at human adrenergic beta3 receptor expressed in CHO cells assessed as [3H]cAMP levels by radiolabeled ligand based assay

Sequence of Beta-1 adrenergic receptor (Homo sapiens) (P08588 whole entry, looked up): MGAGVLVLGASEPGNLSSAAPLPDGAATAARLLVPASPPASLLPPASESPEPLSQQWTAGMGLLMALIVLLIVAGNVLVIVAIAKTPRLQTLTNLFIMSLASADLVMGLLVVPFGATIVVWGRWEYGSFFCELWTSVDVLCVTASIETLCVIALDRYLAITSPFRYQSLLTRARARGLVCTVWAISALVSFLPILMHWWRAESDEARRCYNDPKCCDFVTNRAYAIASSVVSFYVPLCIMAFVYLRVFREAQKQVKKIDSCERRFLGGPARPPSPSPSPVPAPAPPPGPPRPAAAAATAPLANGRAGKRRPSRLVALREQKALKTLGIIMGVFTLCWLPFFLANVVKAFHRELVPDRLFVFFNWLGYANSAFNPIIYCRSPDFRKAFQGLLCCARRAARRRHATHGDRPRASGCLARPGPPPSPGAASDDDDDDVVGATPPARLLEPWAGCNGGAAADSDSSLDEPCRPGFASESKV
T1 sequence (P13945 whole entry): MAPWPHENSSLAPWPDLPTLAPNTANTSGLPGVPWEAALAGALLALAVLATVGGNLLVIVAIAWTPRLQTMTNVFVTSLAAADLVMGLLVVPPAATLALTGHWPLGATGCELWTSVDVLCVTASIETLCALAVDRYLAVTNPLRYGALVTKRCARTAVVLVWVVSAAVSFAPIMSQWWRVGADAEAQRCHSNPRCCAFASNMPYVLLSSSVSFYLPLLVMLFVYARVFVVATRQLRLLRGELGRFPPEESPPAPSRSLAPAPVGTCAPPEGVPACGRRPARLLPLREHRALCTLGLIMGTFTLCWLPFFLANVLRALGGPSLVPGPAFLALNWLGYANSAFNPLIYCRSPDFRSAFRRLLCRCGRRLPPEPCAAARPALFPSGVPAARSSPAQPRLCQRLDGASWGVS
Sequence of Beta-2 adrenergic receptor (Homo sapiens) (P07550 whole entry, looked up): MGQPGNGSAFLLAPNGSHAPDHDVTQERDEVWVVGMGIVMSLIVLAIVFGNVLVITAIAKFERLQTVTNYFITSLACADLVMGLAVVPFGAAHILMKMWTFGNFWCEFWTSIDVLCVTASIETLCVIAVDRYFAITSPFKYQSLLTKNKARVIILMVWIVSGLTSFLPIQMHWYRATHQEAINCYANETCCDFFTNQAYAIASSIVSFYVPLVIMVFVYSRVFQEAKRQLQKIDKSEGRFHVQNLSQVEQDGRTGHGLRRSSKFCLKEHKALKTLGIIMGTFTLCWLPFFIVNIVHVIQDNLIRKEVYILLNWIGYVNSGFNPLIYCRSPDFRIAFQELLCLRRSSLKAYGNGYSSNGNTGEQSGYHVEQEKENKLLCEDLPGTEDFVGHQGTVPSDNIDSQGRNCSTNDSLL
Sequence of Beta-3 adrenergic receptor (Rattus norvegicus) (P26255 whole entry): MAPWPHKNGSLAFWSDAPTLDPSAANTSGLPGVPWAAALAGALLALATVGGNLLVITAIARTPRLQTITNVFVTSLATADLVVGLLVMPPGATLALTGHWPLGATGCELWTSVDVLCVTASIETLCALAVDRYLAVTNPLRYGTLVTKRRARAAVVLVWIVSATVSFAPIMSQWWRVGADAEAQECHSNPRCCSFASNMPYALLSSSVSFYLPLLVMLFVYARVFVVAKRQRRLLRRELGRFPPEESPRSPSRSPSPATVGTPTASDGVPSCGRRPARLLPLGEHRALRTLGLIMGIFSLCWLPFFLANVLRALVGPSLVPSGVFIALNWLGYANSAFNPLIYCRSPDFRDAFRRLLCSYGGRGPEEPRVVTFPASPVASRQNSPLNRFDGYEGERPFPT

SMILES	EC50 [1] [µM]	Activity [2]	inhibition [3] [%]	inhibition [4] [%]	Activity [5] [%]	Activity [6] [%]	Activity [7] [%]	Activity [8] [%]	EC50 [9] [µM]
C[C@H](Oc1ccc(CCNC[C@@H](O)c2ccccc2)cc1)C(=O)O	0.181	Active	14	9	1	1	1.8	–	–
CC(C)(Oc1ccc(CCNC[C@@H](O)c2ccccc2)cc1)C(=O)O	–	–	13	5	1.7	1.5	2.1	–	–
CC(C)(Oc1ccc(CCNCC(O)c2ccccc2)cc1)C(=O)O (racemic)	0.0049	–	18	24	2	1.7	1.8	–	–
Cc1cccc(Nc2cc(Cl)nc(SCC(=O)O)n2)c1C	–	–	–	–	–	–	–	100	–
CCOC(=O)C(C)(C)Oc1ccc(Cl)cc1	–	–	–	–	12.6	11	89.9	–	–
CC(C)(Oc1ccc(Cl)cc1)C(=O)O	–	–	–	–	–	–	86.5	–	–
CNC[C@H](O)c1ccc(O)c(O)c1 [EPINEPHRINE]	0.031	–	–	–	–	–	–	–	0.049
CC(C)(Oc1ccc(CCNC[C@H](O)c2ccccc2)cc1)C(=O)O	–	–	8	1	1.3	1.5	1.5	–	–

Continued, values first:

EC50 [1] [µM]	Activity [2]	inhibition [3] [%]	inhibition [4] [%]	Activity [5] [%]	Activity [6] [%]	Activity [7] [%]	Activity [8] [%]	EC50 [9] [µM]	SMILES
0.136	Active	10	1	1.3	2	3.6	–	–	C[C@@H](Oc1ccc(CCNC[C@@H](O)c2ccccc2)cc1)C(=O)O (single isomer, unassigned)
0.0038	–	37	24	1.5	1.9	1.8	–	–	CC(Oc1ccc(CCNCC(O)c2ccccc2)cc1)C(=O)O (racemic)
0.235	–	6	2	1.1	1.5	2.6	–	–	C[C@@H](Oc1ccc(CCNC[C@H](O)c2ccccc2)cc1)C(=O)O
0.0027	–	28	1	1.6	1.8	1.5	–	–	C[C@H](Oc1ccc(CCNC[C@H](O)c2ccccc2)cc1)C(=O)O (single isomer, unassigned)

— ChEMBL document CHEMBL1144675, “Stereospecific synthesis and bio-activity of novel beta(3)-adrenoceptor agonists and inverse agonists” (Bioorg Med Chem, 2008)
